Assay results from ChEMBL document CHEMBL5606458, “ASAP - ZIKV NS2B-NS3 protease fluorescence single point” (2024).

target: Nonstructural protein 3 (Zika virus) (UniProt A0A024AXB9); experiment: Functional biochemical assay to identify treatments for viral infectious disease that targets Zika NS2B-NS3 protease. Utilizing a direct enzyme activity measurement method, reading the fluorescence intensity is used to characterize the relative potency of inhibitors as % inhibition. Synthetic construct has been made based on Zika virus (strain PRVABC59) by Centre for Medicines Discovery, University of Oxford, and the assay has been performed by Stanford University.The protocol is publicly available: dx.doi.org/10.17504/protocols.io.4r3l29533v1y/v1; settings: Concentration 25.0 uM, Number of replicates 1.0
Sequence (A0A024AXB9 as listed by the source): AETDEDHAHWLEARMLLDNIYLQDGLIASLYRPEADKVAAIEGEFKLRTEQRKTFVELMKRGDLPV

| Compound | inhibition [%] |
| --- | --- |
| Cc1nc(C=O)c2ccccn12 | 45 |
| O=Cc1ccc(N2CCCCCC2)cc1 | 46.5 |
| CN(C)c1ccc(C=C(C#N)C(N)=O)cc1 | 50.7 |
| O=Cc1ccc(N2CCCCC2)cc1 | 49 |
| O=Cc1ccc(N2CCC(C(=O)O)CC2)o1 | 55.4 |
| Nc1ccc2ccc(B(O)O)cc2c1 | 81 |
| Cc1cc(NS(=O)(=O)c2ccc(S(=O)(=O)F)cc2)c[nH]c1=O | 60.6 |
| O=Cc1nc(-c2ccccc2Cl)n2ccccc12 | 48.3 |
| O=Cc1ccc(N2CCC(C(=O)O)CC2)cc1 | 66 |
| Cc1c(C=O)c2ccccn2c1C(=O)c1ccncc1 | 48.3 |
| CC[C@H]1CO[C@H](C)CN1c1ccc(C=O)cn1 | 61.5 |
| Cc1c(C=O)c2ccccn2c1C#N | 48.9 |
